Source: patent publication US8741836B2, “Polypeptides” (Novo Nordisk A/S, priority 2011, dated 2014)
Each block holds one compound with its values, some of them ahead of it. Starred links: 1 amine or outer side, 2 acyl side, 3 side chain; linkers in the order of their positions; H or OH if unused. Positions of bridges follow the written chain, without caps; N, C: chain ends. Residues, ends and D or L forms follow the SMILES beside them. *: point of attachment. C20 diacid = O=C(O)CCCCCCCCCCCCCCCCCCC(=O)*; C18 diacid = O=C(O)CCCCCCCCCCCCCCCCC(=O)*; γGlu = O=C(O)[C@H](CCC(=O)[*:2])N[*:1]

Assay: Assay (III) ThT fibrillation assay for physical stability
Type: physicochemical
Conditions: pH 4.0, ThT fibrillation assay
In short: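 Freshly prepared, pH-adjusted formulations with 1 μM ThT incubated at 37 °C under 960 rpm orbital shaking (1 mm), fluorescence (ex 444, em 485 nm) read every 20 min. […] Peptide content before and after measured by reverse-phase HPLC against pramlintide standard.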

Compound: CC[C@H](C)[C@H](NC(=O)[C@@H]1CCCN1C(=O)CNC(=O)[C@H](Cc1ccccc1)NC(=O)[C@H](CC(N)=O)NC(=O)[C@H](CC(N)=O)NC(=O)[C@H](CO)NC(=O)[C@H](CO)NC(=O)[C@H](Cc1c[nH]cn1)NC(=O)[C@H](Cc1c[nH]cn1)NC(=O)[C@H](CC(C)C)NC(=O)[C@H](Cc1ccccc1)NC(=O)[C@H](CCC(=O)O)NC(=O)[C@H](C)NC(=O)[C@H](CC(C)C)NC(=O)[C@H](CCCNC(=N)N)NC(=O)[C@H](CCC(N)=O)NC(=O)[C@@H](NC(=O)[C@H](C)NC(=O)[C@@H]1CSSC[C@H](NC(=O)CC[C@H](NC(=O)CCCCCCCCCCCCCCCCCCC(=O)O)C(=O)O)C(=O)N[C@@H](CC(N)=O)C(=O)N[C@@H]([C@@H](C)O)C(=O)N[C@@H](C)C(=O)N[C@@H]([C@@H](C)O)C(=O)N1)[C@@H](C)O)C(=O)N[C@@H](CC(C)C)C(=O)N1CCC[C@H]1C(=O)N1CCC[C@H]1C(=O)N[C@H](C(=O)N[C@@H](CC(N)=O)C(=O)N[C@H](C(=O)NCC(=O)N[C@@H](CO)C(=O)N[C@@H](Cc1c[nH]cn1)C(=O)N[C@H](C(=O)N[C@@H](Cc1ccc(O)cc1)C(N)=O)[C@@H](C)O)C(C)C)[C@@H](C)O [Example 75, N-alpha-[(S)-4-Carboxy-4-(19-carboxynonadecanoylamino)butyryl]-[des1,Glu14,His17,His35]-pramlintide] ({C20 diacid-γGlu}-CNTATCATQRLAEFLHHSSNNFGPILPPTNVGSHTY-NH2; disulfide 1-6)
ThT pH 4.0 lag time: 28 h

Compound: CC[C@H](C)[C@H](NC(=O)[C@@H]1CCCN1C(=O)CNC(=O)[C@H](Cc1ccccc1)NC(=O)[C@H](CC(N)=O)NC(=O)[C@H](CC(N)=O)NC(=O)[C@H](CO)NC(=O)[C@H](CO)NC(=O)[C@H](CCCNC(=N)N)NC(=O)[C@H](Cc1c[nH]cn1)NC(=O)[C@H](CC(C)C)NC(=O)[C@H](Cc1ccccc1)NC(=O)[C@H](CCC(=O)O)NC(=O)[C@H](C)NC(=O)[C@H](CC(C)C)NC(=O)[C@H](CCCNC(=N)N)NC(=O)[C@H](CCC(N)=O)NC(=O)[C@@H](NC(=O)[C@H](C)NC(=O)[C@@H]1CSSC[C@H](NC(=O)[C@H](Cc2c[nH]cn2)NC(=O)CC[C@H](NC(=O)CCCCCCCCCCCCCCCCCCC(=O)O)C(=O)O)C(=O)N[C@@H](CC(N)=O)C(=O)N[C@@H]([C@@H](C)O)C(=O)N[C@@H](C)C(=O)N[C@@H]([C@@H](C)O)C(=O)N1)[C@@H](C)O)C(=O)N[C@@H](CC(C)C)C(=O)N1CCC[C@H]1C(=O)N1CCC[C@H]1C(=O)N[C@H](C(=O)N[C@@H](CC(N)=O)C(=O)N[C@H](C(=O)NCC(=O)N[C@@H](CO)C(=O)N[C@@H](Cc1c[nH]cn1)C(=O)N[C@H](C(=O)N[C@@H](Cc1ccc(O)cc1)C(N)=O)[C@@H](C)O)C(C)C)[C@@H](C)O [Example 77, N-alpha-[(S)-4-Carboxy-4-(19-carboxynonadecanoylamino)butyryl]-[His1,Glu14,His17,Arg18,His35]-pramlintide] ({C20 diacid-γGlu}-HCNTATCATQRLAEFLHRSSNNFGPILPPTNVGSHTY-NH2; disulfide 2-7 (inferred))
ThT pH 4.0 lag time: >45 h

Compound: CC[C@H](C)[C@H](NC(=O)[C@@H]1CCCN1C(=O)CNC(=O)[C@H](Cc1ccccc1)NC(=O)[C@H](CC(N)=O)NC(=O)[C@H](CC(N)=O)NC(=O)[C@H](CO)NC(=O)[C@H](CO)NC(=O)[C@H](CCCNC(=N)N)NC(=O)[C@H](Cc1c[nH]cn1)NC(=O)[C@H](CC(C)C)NC(=O)[C@H](Cc1ccccc1)NC(=O)[C@H](CCC(=O)O)NC(=O)[C@H](C)NC(=O)[C@H](CC(C)C)NC(=O)[C@H](CCCNC(=N)N)NC(=O)[C@H](CCC(N)=O)NC(=O)[C@@H](NC(=O)[C@H](C)NC(=O)[C@@H]1CSSC[C@H](NC(=O)[C@H](CCCCN)NC(=O)CC[C@H](NC(=O)CCCCCCCCCCCCCCCCCCC(=O)O)C(=O)O)C(=O)N[C@@H](CC(N)=O)C(=O)N[C@@H]([C@@H](C)O)C(=O)N[C@@H](C)C(=O)N[C@@H]([C@@H](C)O)C(=O)N1)[C@@H](C)O)C(=O)N[C@@H](CC(C)C)C(=O)N1CCC[C@H]1C(=O)N1CCC[C@H]1C(=O)N[C@H](C(=O)N[C@@H](CC(N)=O)C(=O)N[C@H](C(=O)NCC(=O)N[C@@H](CO)C(=O)N[C@@H](Cc1c[nH]cn1)C(=O)N[C@H](C(=O)N[C@@H](Cc1ccc(O)cc1)C(N)=O)[C@@H](C)O)C(C)C)[C@@H](C)O [Example 78, N-alpha-[(S)-4-Carboxy-4-(19-carboxynonadecanoylamino)butyryl]-[Glu14,His17,Arg18,His35]-pramlintide] ({C20 diacid-γGlu}-KCNTATCATQRLAEFLHRSSNNFGPILPPTNVGSHTY-NH2; disulfide 2-7 (inferred))
ThT pH 4.0 lag time: >45 h

More lines, now with the values ahead:

ThT pH 4.0 lag time: >45 h
Compound: CC[C@H](C)[C@H](NC(=O)[C@@H]1CCCN1C(=O)CNC(=O)[C@H](Cc1ccccc1)NC(=O)[C@H](CC(N)=O)NC(=O)[C@H](CC(N)=O)NC(=O)[C@H](CO)NC(=O)[C@H](CO)NC(=O)[C@H](Cc1c[nH]cn1)NC(=O)[C@H](Cc1c[nH]cn1)NC(=O)[C@H](CC(C)C)NC(=O)[C@H](Cc1ccccc1)NC(=O)[C@H](CCC(=O)O)NC(=O)[C@H](C)NC(=O)[C@H](CC(C)C)NC(=O)[C@H](CCCNC(=N)N)NC(=O)[C@H](CCC(N)=O)NC(=O)[C@@H](NC(=O)[C@H](C)NC(=O)[C@@H]1CSSC[C@H](NC(=O)[C@H](CCCCN)NC(=O)[C@H](Cc2c[nH]cn2)NC(=O)CC[C@H](NC(=O)CCCCCCCCCCCCCCCCC(=O)O)C(=O)O)C(=O)N[C@@H](CC(N)=O)C(=O)N[C@@H]([C@@H](C)O)C(=O)N[C@@H](C)C(=O)N[C@@H]([C@@H](C)O)C(=O)N1)[C@@H](C)O)C(=O)N[C@@H](CC(C)C)C(=O)N1CCC[C@H]1C(=O)N1CCC[C@H]1C(=O)N[C@H](C(=O)N[C@@H](CC(N)=O)C(=O)N[C@H](C(=O)NCC(=O)N[C@@H](CO)C(=O)N[C@@H](Cc1c[nH]cn1)C(=O)N[C@H](C(=O)N[C@@H](Cc1ccc(O)cc1)C(N)=O)[C@@H](C)O)C(C)C)[C@@H](C)O [Example 70, N-alpha-[(S)-4-Carboxy-4-(17-carboxyheptadecanoylamino)butyryl]-His-[Glu14,His17,His35]-pramlintide] ({C18 diacid-γGlu}-HKCNTATCATQRLAEFLHHSSNNFGPILPPTNVGSHTY-NH2; disulfide 3-8 (inferred))

ThT pH 4.0 lag time: >45 h
Compound: CC[C@H](C)[C@H](NC(=O)[C@@H]1CCCN1C(=O)CNC(=O)[C@H](Cc1ccccc1)NC(=O)[C@H](CC(N)=O)NC(=O)[C@H](CC(N)=O)NC(=O)[C@H](CO)NC(=O)[C@H](CO)NC(=O)[C@H](Cc1c[nH]cn1)NC(=O)[C@H](Cc1c[nH]cn1)NC(=O)[C@H](CC(C)C)NC(=O)[C@H](Cc1ccccc1)NC(=O)[C@H](CCC(=O)O)NC(=O)[C@H](C)NC(=O)[C@H](CC(C)C)NC(=O)[C@H](CCCNC(=N)N)NC(=O)[C@H](CCC(N)=O)NC(=O)[C@@H](NC(=O)[C@H](C)NC(=O)[C@@H]1CSSC[C@H](NC(=O)[C@H](Cc2c[nH]cn2)NC(=O)CC[C@H](NC(=O)CCCCCCCCCCCCCCCCCCC(=O)O)C(=O)O)C(=O)N[C@@H](CC(N)=O)C(=O)N[C@@H]([C@@H](C)O)C(=O)N[C@@H](C)C(=O)N[C@@H]([C@@H](C)O)C(=O)N1)[C@@H](C)O)C(=O)N[C@@H](CC(C)C)C(=O)N1CCC[C@H]1C(=O)N1CCC[C@H]1C(=O)N[C@H](C(=O)N[C@@H](CC(N)=O)C(=O)N[C@H](C(=O)NCC(=O)N[C@@H](CO)C(=O)N[C@@H](Cc1c[nH]cn1)C(=O)N[C@H](C(=O)N[C@@H](Cc1ccc(O)cc1)C(N)=O)[C@@H](C)O)C(C)C)[C@@H](C)O [Example 76, N-alpha-[(S)-4-Carboxy-4-(19-carboxynonadecanoylamino)butyryl]-[His1,Glu14,His17,His35]-pramlintide] ({C20 diacid-γGlu}-HCNTATCATQRLAEFLHHSSNNFGPILPPTNVGSHTY-NH2; disulfide 2-7)
